The values below come from publication PMC9233739 (Journal of medicinal chemistry, 2016).

For orientation: EC50 means the concentration that produces a half-maximal response.

Molecules are shown by their SMILES. A value given as a limit tells only on which side of the number the result lay.

For assay [1], the system named is P. berghei sporozoites. In kind it is cell-based. To be noted: for LBI (TM90-C2B/Pb): liver blood index LBI = TM90-C2B/Pb; for LBI (W2/Pb): liver blood index LBI = W2/Pb.
Assay [2] deals with P. berghei / P. cynomolgi infections. To be noted: cited from earlier work.
In assay [3] the test system is Plasmodium berghei-GFP parasites. The assay is described as follows: modified Thompson test in mice. To be noted: 10 mg/kg oral on days 3, 4, 5 in HEC/Tween; vs untreated control animals.
Assay [4] relates to J774 cell lines. The assay is described as follows: cytotoxicity in J774 cells, 96 well plate format. It counts as cell-based. To be noted: Mus musculus, J774, read-out: EC50 J774 (internal controls).
Assay [5] deals with P. falciparum TM90-C2B. As to the kind of experiment: microbe, parasite or virus in culture. In kind it is cell-based. The note with it: Plasmodium falciparum, TM90, read-out: EC50 TM90-C2B.

`COC(=O)c1c[nH]c2ccc(-c3ccccc3)cc2c1=O` [Compound 6u]: in assay [1], the “LBI (TM90-C2B/Pb)” value is listed as less than 40.1 and the “LBI (W2/Pb)” value is recorded as less than 11.7.

`CCCc1cc2c(=O)c(C(=O)OC)c[nH]c2cc1OCCOc1ccccc1` [Compound 6x]: in assay [1], the “LBI (TM90-C2B/Pb)” value is listed as more than 707 and the “LBI (W2/Pb)” value was more than 2.62.

Regarding `CCCCCc1cc2c(=O)c(C(=O)OC)c[nH]c2cc1OCCOc1ccccc1` [Compound 6y], in assay [1], the “LBI (TM90-C2B/Pb)” value is on record as more than 123 and the “LBI (W2/Pb)” value was more than 0.33.

Consider `CCCCc1cc2c(=O)c(C(=O)OC)c[nH]c2cc1OCCOc1ccccc1` [Compound 6b], for which the “dose producing radical cures” value in assay [2] was 15 mg/kg. Besides, the “Inhibition (%) Day 6 PE” value in assay [3] is less than 1%.

With `COC(=O)c1c[nH]c2cc(F)ccc2c1=O` [Compound 6n], in assay [1], the “LBI (TM90-C2B/Pb)” value was less than 3.95 and the “LBI (W2/Pb)” value is given as less than 0.262.

On to `O=C1C(O)=C([C@H]2CC[C@H](c3ccc(Cl)cc3)CC2)C(=O)c2ccccc21` [ATO, atovaquone], for which the concentration for a half-maximal effect (EC50) is 23.8 µM in assay [4] and 0.0184 µM in assay [5].

`CCCCc1ccc2[nH]ccc(=O)c2c1` [Compound 8c]: the “LBI (TM90-C2B/Pb)” value in assay [1] is more than 31.4.

Take `CCN(CC)CCCC(C)Nc1ccnc2cc(Cl)ccc12` (stereo not shown) [CQ, Chloroquine]: the EC50 in assay [4] worked out at 47.2 µM.

As to `COC(=O)c1c[nH]c2ccc(OC)cc2c1=O` [Compound 6o], the “LBI (TM90-C2B/Pb)” value in assay [1] is more than 134.

As for `C[C@H]1[C@@H](O)O[C@@H]2O[C@@]3(C)CC[C@H]4[C@H](C)CC[C@@H]1[C@@]24OO3` [DHA, dihydroartemisinin], in assay [4], the concentration giving a half-maximal response (EC50) came out at 1.53 µM.

In the case of `O=c1cc[nH]c2cc(OCCOc3ccccc3)ccc12` [Compound 8a], in assay [1], the “LBI (TM90-C2B/Pb)” value is on record as less than 21.7 and the “LBI (W2/Pb)” value is recorded as less than 16.8.

On to `COC(=O)c1c[nH]c2cc(OCCCc3ccccc3)ccc2c1=O` [Compound 6j], for which the “LBI (TM90-C2B/Pb)” value in assay [1] is given as more than 149.
